ChEMBL document CHEMBL5120880, “Peptidomimetics: An Overview of Recent Medicinal Chemistry Efforts toward the Discovery of Novel Small Molecule Inhibitors” (J Med Chem, 2022)
Square brackets hold non-standard residues; d marks the D form. Peptide text beside a SMILES is read from it. * marks the point of attachment. Pro(cis-4-OPh) = O=C(O)[C@@H]1C[C@H](Oc2ccccc2)CN1; Bip = N[C@@H](Cc1ccc(-c2ccccc2)cc1)C(=O)O; X1 = CCCCCCCCCCCCCCCCCCS(=O)(=O)CCN*; Tle = CC(C)(C)[C@H](N)C(=O)O; X2 = CCCCCCCCCCCCCCCCCCSCCN*; NMeA = CN[C@@H](C)C(=O)O

Experiments:
[1] = Inhibition of FITC-labeled NS4A binding to HCV NS3 (4 to 182 residues) expressed in Escherichia coli […] (DE3) incubated for 60 mins by fluorescence anisotropy based competition assay; parameters: species or system Hepacivirus hominis
SW480 = experiment: Cytotoxicity against human SW480 cells assessed as cell growth inhibition; format: functional, cell-based
HCT-116 = experiment: Cytotoxicity against human HCT-116 cells assessed as cell growth inhibition; format: functional, cell-based
MDA-MB-231 = experiment: Cytotoxicity against human MDA-MB-231 cells assessed as cell growth inhibition; format: functional, cell-based
MDA-MB-468 = experiment: Cytotoxicity against human MDA-MB-468 cells assessed as cell growth inhibition; format: functional, cell-based
BT-20 = experiment: Cytotoxicity against human BT-20 cells assessed as cell growth inhibition; format: functional, cell-based
A549 = experiment: Cytotoxicity against human A549 cells assessed as cell growth inhibition; format: functional, cell-based
BT-474 = experiment: Antitumor activity against human BT-474 cells assessed as cell growth inhibition; format: functional, cell-based
HCC1954 = experiment: Antitumor activity against human HCC1954 cells assessed as cell growth inhibition; format: functional, cell-based
Hep 3B2 = experiment: Antitumor activity against human Hep3B cells assessed as cell growth inhibition; format: functional, cell-based
NALM-6 = experiment: Antitumor activity against human NALM-6 cells assessed as cell growth inhibition; format: functional, cell-based
FaDu = experiment: Antitumor activity against human FaDu cells assessed as cell growth inhibition; format: functional, cell-based
Hepatitis C virus [2] = experiment: Antiviral activity against HCV; format: functional, organism-based, Hepacivirus hominis
Hepatitis C virus [3] = experiment: Antiviral activity against HCV genotype 1b/3a NS5A infected in human Huh-7 cells by phenotypic assay; format: functional, organism-based, Hepacivirus hominis
Hepatitis C virus [4] = experiment: Antiviral activity against HCV genotype 1b/6a NS5A infected in human Huh-7 cells by phenotypic assay; format: functional, organism-based, Hepacivirus hominis
[5] = target: Catenin beta-1/Cadherin-1 (Homo sapiens, UniProt P12830+P35222); experiment: Binding affinity to beta-catenin/E-cadherin (unknown origin) assessed as inhibition constant; format: protein assay
[6] = Binding affinity to beta-catenin/APC (unknown origin) assessed as inhibition constant; parameters: species or system Homo sapiens
[7] = Antitumor activity against human UM-SCC-5 cells assessed as cell growth inhibition; format: functional, cell-based
[8] = Antitumor activity against human UM-SCC-38 cells assessed as cell growth inhibition; format: functional, cell-based
HeLa = experiment: Antiproliferative activity against human HeLA cells by MTT assay; format: functional, cell-based
N2a = experiment: Antiproliferative activity against mouse N2a cells by MTT assay; format: functional, cell-based

Sequence of Catenin beta-1/Cadherin-1 (P35222 whole entry): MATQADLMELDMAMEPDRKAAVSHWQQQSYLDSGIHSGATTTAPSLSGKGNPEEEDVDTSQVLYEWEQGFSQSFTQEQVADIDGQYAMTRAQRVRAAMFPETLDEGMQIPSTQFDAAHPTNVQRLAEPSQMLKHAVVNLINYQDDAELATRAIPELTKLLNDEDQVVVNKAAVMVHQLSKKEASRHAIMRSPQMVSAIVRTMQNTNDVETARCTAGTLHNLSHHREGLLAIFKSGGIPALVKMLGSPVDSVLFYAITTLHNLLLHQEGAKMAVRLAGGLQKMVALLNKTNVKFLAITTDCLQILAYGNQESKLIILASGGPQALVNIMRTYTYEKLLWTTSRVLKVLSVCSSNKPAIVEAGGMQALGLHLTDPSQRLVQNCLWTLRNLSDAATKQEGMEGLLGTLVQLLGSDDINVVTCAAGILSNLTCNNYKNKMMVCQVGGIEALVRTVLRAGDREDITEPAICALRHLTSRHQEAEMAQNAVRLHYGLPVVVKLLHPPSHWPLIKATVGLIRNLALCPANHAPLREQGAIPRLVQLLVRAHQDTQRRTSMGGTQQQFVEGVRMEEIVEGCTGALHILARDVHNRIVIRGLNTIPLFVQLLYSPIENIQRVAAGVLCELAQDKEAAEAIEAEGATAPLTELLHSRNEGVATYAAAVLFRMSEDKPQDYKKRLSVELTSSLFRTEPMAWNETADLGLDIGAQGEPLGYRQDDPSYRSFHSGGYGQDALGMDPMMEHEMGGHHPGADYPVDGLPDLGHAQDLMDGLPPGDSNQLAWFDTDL
Sequence of Catenin beta-1/Cadherin-1 (P12830 whole entry): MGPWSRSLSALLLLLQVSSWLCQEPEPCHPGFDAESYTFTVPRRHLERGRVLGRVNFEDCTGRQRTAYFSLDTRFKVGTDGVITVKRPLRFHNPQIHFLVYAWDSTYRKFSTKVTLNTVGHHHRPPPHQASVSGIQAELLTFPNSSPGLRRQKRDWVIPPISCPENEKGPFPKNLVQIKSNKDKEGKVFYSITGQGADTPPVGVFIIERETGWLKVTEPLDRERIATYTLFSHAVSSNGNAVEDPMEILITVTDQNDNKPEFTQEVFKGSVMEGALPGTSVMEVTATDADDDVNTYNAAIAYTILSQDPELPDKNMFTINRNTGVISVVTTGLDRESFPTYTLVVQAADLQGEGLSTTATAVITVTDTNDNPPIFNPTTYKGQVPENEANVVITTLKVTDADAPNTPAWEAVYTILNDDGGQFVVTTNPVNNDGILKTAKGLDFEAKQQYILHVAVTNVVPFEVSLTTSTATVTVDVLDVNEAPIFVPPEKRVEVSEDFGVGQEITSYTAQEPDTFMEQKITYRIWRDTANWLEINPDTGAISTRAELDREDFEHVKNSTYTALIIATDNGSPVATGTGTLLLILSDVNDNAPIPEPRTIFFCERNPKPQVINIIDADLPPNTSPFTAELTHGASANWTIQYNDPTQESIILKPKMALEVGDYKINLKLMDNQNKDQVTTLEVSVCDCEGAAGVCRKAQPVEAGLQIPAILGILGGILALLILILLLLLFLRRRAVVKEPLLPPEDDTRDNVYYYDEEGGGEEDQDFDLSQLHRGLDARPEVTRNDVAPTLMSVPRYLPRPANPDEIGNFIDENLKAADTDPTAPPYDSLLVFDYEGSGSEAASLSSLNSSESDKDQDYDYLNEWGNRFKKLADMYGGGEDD

CNC(=O)CNC(=O)c1ncc(C(=O)NCCCCNC(=N)N)[nH]1
IC50 [1]: 1.91 µM

NC(=O)CC[C@H](NC(=O)[C@H](Cc1nn[nH]n1)NC(=O)[C@H](Cc1ccc2ccccc2c1)NC(=O)c1cc2cc(Cl)ccc2[nH]1)C(=O)Nc1ccc(OC(F)(F)F)cc1
IC50 (SW480): 28.2 µM
IC50 (HCT-116): 63.9 µM
IC50 (MDA-MB-231): 34.3 µM
IC50 (MDA-MB-468): 29.2 µM
IC50 (BT-20): 38.4 µM
IC50 (A549): 60.3 µM

CCCCCCCCCCCCCCc1cccc(O[C@H]2C[C@@H](C(=O)NCC(c3ccccc3)c3ccccc3)N(C(=O)[C@@H](NC(=O)[C@H](C)NC)C(C)(C)C)C2)c1
EC50 (BT-474): 7 µM
EC50 (HCC1954): 19.8 µM
EC50 (Hep 3B2): 2.2 µM
EC50 (NALM-6): 11.1 µM
EC50 (FaDu): 1.5 µM

COC(=O)N[C@H](C(=O)N1CCC[C@H]1C(=O)Nc1cccc(-c2ccc3c(c2)C(F)(F)c2cc(-c4cnc([C@@H]5CCCN5C(=O)[C@@H](NC(=O)OC)C(C)C)[nH]4)ccc2-3)c1)C(C)C
EC50 (Hepatitis C virus [2]): < 50 pM
EC50 (Hepatitis C virus [3]): > 0.0005 µM
EC50 (Hepatitis C virus [4]): 0.000275 µM

O=C(O)CC[C@H](NC(=O)[C@H](Cc1nnn[nH]1)NC(=O)[C@H](Cc1ccc2ccccc2c1)NC(=O)c1cc2c(Cl)cccc2[nH]1)C(=O)Nc1ccc(OC(F)(F)F)cc1
Ki [5]: 13 µM
Ki [6]: 173 µM

CCCCCCCCCCCCCCCCCCSCCNC(=O)[C@H](Cc1ccc(-c2ccccc2)cc1)NC(=O)[C@@H]1C[C@H](Oc2ccccc2)CN1C(=O)[C@@H](NC(=O)[C@H](C)NC)C(C)(C)C (H-[NMeA][Tle][Pro(cis-4-OPh)][Bip]-X2)
EC50 [7]: 0.96 µM
EC50 [8]: 0.33 µM

CCCCCCNC(=O)c1ncc(C(=O)NCCCCNC(=N)N)[nH]1
IC50 [1]: 4.7 µM

CCCCCCCCCCCCCCCCCCS(=O)(=O)CCNC(=O)[C@H](Cc1ccc(-c2ccccc2)cc1)NC(=O)[C@@H]1C[C@H](Oc2ccccc2)CN1C(=O)[C@@H](NC(=O)[C@H](C)NC)C(C)(C)C (H-[NMeA][Tle][Pro(cis-4-OPh)][Bip]-X1)
EC50 [7]: 0.73 µM
EC50 [8]: 0.14 µM

COC(=O)N[C@H](C(=O)N1CCC[C@H]1C(=O)Nc1cc2ccc1CCc1ccc(cc1NC(=O)[C@@H]1CCCN1C(=O)[C@@H](NC(=O)OC)C(C)C)CC2)C(C)C
EC50 (Hepatitis C virus [2]): 80 pM
EC50 (Hepatitis C virus [3]): > 0.0005 µM
EC50 (Hepatitis C virus [4]): > 0.0005 µM

CCCCCNC(=O)c1ncc(C(=O)NCCCCNC(=N)N)[nH]1
IC50 [1]: 1.91 µM

CCOC(=O)CC[C@H](NC(=O)[C@H](Cc1nn[nH]n1)NC(=O)[C@H](Cc1ccc2ccccc2c1)NC(=O)c1cc2cc(Cl)ccc2[nH]1)C(=O)Nc1ccc(OC(F)(F)F)cc1
IC50 (SW480): 14.1 µM
IC50 (HCT-116): 69.4 µM
IC50 (MDA-MB-231): 12.3 µM
IC50 (MDA-MB-468): 7.25 µM
IC50 (BT-20): 16.5 µM
IC50 (A549): 86.4 µM

CC[C@@H]1[C@@H]2CN(C(=O)[C@H](C(C)(C)C)NC(=O)O[C@@H]3C[C@H]3CCCCC(F)(F)c3nc4ccc(OC)cc4nc3O2)[C@@H]1C(=O)N[C@]1(C(=O)NS(=O)(=O)C2(C)CC2)C[C@H]1C(F)F
EC50 (Hepatitis C virus [2]): 70000 pM

O=C(Cc1ccccc1)NC1CC2CN(Cc3ccccc3)CC3C2CC=C(COC(=O)Cc2ccccc2)C13 (stereo not given)
EC50 (HeLa): 10.3 µM
EC50 (N2a): 2.1 µM

CCCCCCCCCCCCCCCCCCS[C@H]1C[C@@H](C(=O)NCC(c2ccccc2)c2ccccc2)N(C(=O)[C@@H](NC(=O)[C@H](C)NC)C(C)(C)C)C1
EC50 (BT-474): 10.8 µM
EC50 (HCC1954): 17.5 µM
EC50 (Hep 3B2): 12.4 µM
EC50 (NALM-6): 26.9 µM
EC50 (FaDu): 5.4 µM
